Results reported in patent US9388148B2, “Acylaminocycloalkyl compounds suitable for treating disorders that respond to modulation of dopamine D3 receptor” (AbbVie Deutschland GmbH & Co. KG, priority 2013, dated 2016).

Tests used:
[1] = target: T1, human dopamine D3 receptors (Homo sapiens, UniProt P35462); experiment: Dopamine D3 receptor binding ([125I]-iodosulpride displacement); conditions: membranes of HEK-293 cells with human D3 receptors, 0.1 nM [125I]-iodosulpride
T1 construct: expressed in transfected cells; host or cells: HEK-293
Protocol: (§1) The substance to be tested was either dissolved in methanol/Chremophor® (BASF SE) or in dimethyl sulfoxide and then diluted with water to the desired concentration.
(§2) Each assay mixture was run in triplicate. • The incubation buffer contained 50 mM tris, 120 mM NaCl, 5 mM KCl, 2 mM CaCl2, 2 mM MgCl2 and 0.1% bovine serum albumin, 10 μM quinolone and 0.1% ascorbic acid (prepared fresh daily). […] Each assay mixture was run in triplicate. • The incubation buffer contained 50 mM tris, 120 mM NaCl, 5 mM KCl, 2 mM CaCl2, 2 mM MgCl2 and 0.1% bovine serum albumin. The buffer was adjusted to pH 7.4 with HCl. c) Measurement and analysis: • After having been incubated at 25° C. for 60 minutes, the assay mixtures were filtered through a Whatman GF/B glass fiber filter under vacuum using a cell col-lecting device. The filters were transferred to scintillation viols using a filter transfer system. After 4 ml of Ultima Gold® (Packard) have been added, the samples were shaken for one hour and the radioactivity was then counted in a Beta-Counter (Packard, Tricarb 2000 or 2200CA).

[2] = target: T2, human dopamine D2L receptors (long isoform) (Homo sapiens, UniProt P14416); experiment: Dopamine D2L receptor binding ([125I]iodospiperone displacement); conditions: selectivity ratio, human D2L vs human D3 binding
T2 construct: expressed in transfected cells; host or cells: HEK-293
Protocol: as §1, §2

[3] = Determination of the microsomal half-life / microsomal clearance; format: in vitro ADME; conditions: pH 7.4; human liver microsomes, 0.5 μM test substance, 0.25 mg protein/ml, NADPH, 37° C.; read-out: Human mCl (mikrosomal clearance)
Protocol: The metabolic stability of the compounds of the invention was determined in the following assay.
The test substances were incubated in a concentration of 0.5 μM as follows:
0.5 μM test substance are preincubated together with liver microsomes from different species (from rat, human or other species) (0.25 mg of microsomal protein/ml) in 0.05 M potassium phosphate buffer of pH 7.4 in microtiter plates at 37° C. for 5 min. The reaction is started by adding NADPH (1 mg/mL). After 0, 5, 10, 15, 20 and 30 min, 50 μl aliquots are removed, and the reaction is immediately stopped and cooled with the same volume of acetonitrile. The samples are frozen until analyzed. The remaining concentration of undegraded test substance is determined by MSMS. The half-life (T1/2) is determined from the gradient of the signal of test substance/unit time plot, it being possible to calculate the half-life of the test substance, assuming first order kinetics, from the decrease in the concentration of the compound with time. The microsomal clearance (mC1) is calculated from mC1=1n2/T1/2/(content of microsomal protein in mg/ml)×1000 [ml/min/mg] (modified from references: Di, The Society for Biomoleculur Screening, 2003, 453-462; Obach, DMD, 1999 vol 27. N 11, 1350-1359).

T2 sequence (P14416 whole entry, canonical isoform): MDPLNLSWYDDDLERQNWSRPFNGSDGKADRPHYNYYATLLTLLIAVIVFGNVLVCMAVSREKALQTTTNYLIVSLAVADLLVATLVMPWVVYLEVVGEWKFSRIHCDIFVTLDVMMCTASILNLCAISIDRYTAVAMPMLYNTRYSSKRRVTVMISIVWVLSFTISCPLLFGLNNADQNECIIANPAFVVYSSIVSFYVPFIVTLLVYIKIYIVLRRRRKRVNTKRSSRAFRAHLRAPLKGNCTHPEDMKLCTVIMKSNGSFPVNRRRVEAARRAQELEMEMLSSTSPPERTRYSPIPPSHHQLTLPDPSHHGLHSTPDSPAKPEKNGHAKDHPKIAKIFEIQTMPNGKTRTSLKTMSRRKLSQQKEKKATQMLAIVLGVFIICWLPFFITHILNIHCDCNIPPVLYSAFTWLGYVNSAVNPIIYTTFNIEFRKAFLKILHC
T1 sequence (P35462 whole entry): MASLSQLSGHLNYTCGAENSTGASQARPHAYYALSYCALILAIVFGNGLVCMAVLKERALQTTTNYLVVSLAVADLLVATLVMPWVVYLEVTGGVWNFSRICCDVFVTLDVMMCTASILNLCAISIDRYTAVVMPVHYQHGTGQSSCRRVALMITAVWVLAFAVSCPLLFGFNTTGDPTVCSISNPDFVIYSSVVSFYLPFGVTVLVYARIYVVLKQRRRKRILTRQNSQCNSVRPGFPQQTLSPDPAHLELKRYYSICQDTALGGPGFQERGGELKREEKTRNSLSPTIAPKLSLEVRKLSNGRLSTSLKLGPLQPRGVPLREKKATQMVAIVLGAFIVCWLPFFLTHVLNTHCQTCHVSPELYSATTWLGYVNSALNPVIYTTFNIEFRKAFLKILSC

Structure (SMILES) | Ki [1] [nM] | D2/D3, Ki (D2L)/Ki (D3) [2] | microsomal CLint at 0.5 μM [3] [µL/min/mg]
CC(C)c1cc(N2CCN(CCC3CC(NC(=O)[C@H]4CC[C@H](O)CC4)C3)C[C@@H]2C)nc(C(C)(C)C)n1 (stereo partly drawn) [Compound 42, N-[3-[2-[(3S)-4-(2-tert-butyl-6-isopropyl-pyrimidin-4-yl)-3-methyl-piperazin-1-yl]ethyl]cyclobutyl]-trans-4-hydroxy-cyclohexanecarboxamide] | < 10 | +++ (+++ >50) | –
CC(C)c1cc(N2CCN(CCC3CC[C@H](NC(=O)[C@H]4CC[C@H](O)CC4)C3)C[C@@H]2C)nc(C(C)(C)C)n1 (stereo partly drawn) [Compound 45, Trans-N-[(1S)-3-[2-[(3S)-4-(2-tert-butyl-6-isopropyl-pyrimidin-4-yl)-3-methyl-piperazin-1-yl]ethyl]cyclopentyl]-4-hydroxy-cyclohexanecarboxamide] | < 10 | +++ (+++ >50) | –
CC(C)c1cc(N2CCN(CCC3CCC(NC(=O)[C@H]4CC[C@H](O)CC4)CC3)C[C@@H]2C)nc(C(C)(C)C)n1 (stereo partly drawn) [Compound 46, Trans-N-[4-[2-[(3S)-4-(2-tert-butyl-6-isopropyl-pyrimidin-4-yl)-3-methyl-piperazin-1-yl]ethyl]cyclohexyl]-4-hydroxy-cyclohexanecarboxamide] | < 10 | +++ (+++ >50) | –
CC(C)c1cc(N2CCN(CC[C@H]3CC[C@H](NC(=O)[C@H]4CC[C@H](O)CC4)CC3)C[C@@H]2C)nc(C(C)(C)C)n1 [Compound 41, Trans-N-[4-[2-[(3S)-4-(2-tert-butyl-6-isopropyl-pyrimidin-4-yl)-3-methyl-piperazin-1-yl]ethyl]cyclohexyl]-trans-4-hydroxy-cyclohexanecarboxamide] | < 10 | +++ (+++ >50) | –
CC(C)c1cc(N2CCN(CCC3CCC(NC(=O)[C@H]4C[C@H](O)C4)CC3)C[C@@H]2C)nc(C(C)(C)C)n1 (stereo partly drawn) [Compound 48, Trans-N-[4-[2-[(3S)-4-(2-tert-butyl-6-isopropyl-pyrimidin-4-yl)-3-methyl-piperazin-1-yl]ethyl]cyclohexyl]-3-hydroxycyclobutanecarboxamide] | < 10 | +++ (+++ >50) | –
CO[C@H]1C[C@H](C(=O)NC2CCC(CCN3CCN(c4cc(C(C)C)nc(C(C)(C)C)n4)CC3)CC2)C1 (relative stereo) [Compound 49, Trans-N-[4-[2-[4-(2-tert-butyl-6-isopropyl-pyrimidin-4-yl)-piperazin-1-yl]ethyl]cyclohexyl]-3-methoxy-cyclobutanecarboxamide] | < 10 | +++ (+++ >50) | –

The next lines start with the values.

Ki [1] [nM] | D2/D3, Ki (D2L)/Ki (D3) [2] | microsomal CLint at 0.5 μM [3] [µL/min/mg] | Structure (SMILES)
< 10 | +++ (+++ >50) | – | C[C@H]1CN(CC[C@H]2CC[C@@H](NC(=O)[C@H]3CC[C@H](O)CC3)CC2)CCN1c1cc(C(F)F)nc(C(C)(C)C)n1 [Compound 44, Cis-N-[4-[2-[(3S)-4-[2-tert-butyl-6-(difluoromethyl)pyrimidin-4-yl]-3-methyl-piperazin-1-yl]ethyl]cyclohexyl]-trans-4-hydroxy-cyclohexanecarboxamide]
< 10 | +++ (+++ >50) | – | CC(C)c1cc(N2CCN(CC[C@H]3CC[C@@H](NC(=O)[C@H]4CC[C@H](O)CC4)CC3)CC2)nc(C(C)(C)C)n1 [Compound 43, Cis-N-[4-[2-[4-(2 tert-butyl-6-isopropyl-pyrimidin-4-yl)piperazin-1-yl]ethyl]cyclohexyl]-trans-4-hydroxy-cyclohexanecarboxamide]
< 10 | +++ (+++ >50) | – | CC(C)c1cc(N2CCN(CCC3CCC(NC(=O)[C@H]4C[C@H](O)C4)CC3)CC2)nc(C(C)(C)C)n1 (relative stereo) [Compound 50, Trans-N-[4-[2-[4-(2-tert-butyl-6-isopropyl-pyrimidin-4-yl)-piperazin-1-yl]ethyl]cyclohexyl]-3-hydroxy-cyclobutanecarboxamide]
– | ++ (++ >20) | 20 to 120 | CC(C)(C)c1nc(N2CCN(CC[C@H]3CC[C@H](NC(=O)[C@H]4CC[C@H](O)CC4)CC3)CC2)cc(C(F)(F)F)n1 [Compound 21, trans-N-[trans-4-[2-[4-[2-tert-butyl-6-(trifluoromethyl)pyrimidin-4-yl]piperazin-1-yl]ethyl]cyclohexyl]-4-hydroxy-cyclohexanecarboxamide]
– | +++ (+++ >50) | 20 to 120 | COCCc1cc(N2CCN(CC[C@H]3C[C@@H](NC(=O)[C@H]4CC[C@H](O)CC4)C3)CC2)nc(C(C)(C)C)n1.O=C(O)C(F)(F)F [Compound 8, trans-N-[cis-3-[2-[4-[2-tert-butyl-6-(2-methoxyethyl)pyrimidin-4-yl]piperazin-1-yl]ethyl]cyclobutyl]-4-hydroxy-cyclohexanecarboxamide; 2,2,2-trifluoroacetic acid]
– | +++ (+++ >50) | 20 to 120 | CC(C)(C)c1nc(C2CCCC2)cc(N2CCN(CC[C@H]3CC[C@@H](NC(=O)[C@H]4CC[C@H](O)CC4)CC3)CC2)n1 [Compound 36, trans-N-[cis-4-[2-[4-(2-tert-butyl-6-cyclopentyl-pyrimidin-4-yl)piperazin-1-yl]ethyl]cyclohexyl]-4-hydroxy-cyclohexanecarboxamide]
